Measured values from patent US5270339A, “Phenoxybenzene derivative” (Kanagafuchi Kagaku Kogyo Kabushiki Kaisha, priority 1991, dated 1993).

What was measured:
[1] = tested on: experimental amnesia in mice induced by cycloheximide; experiment: Anti-amnesic effect: passive avoidance task (step-through), cycloheximide-induced amnesia; assay type: in vivo, ddY male mice; conditions: for Step-through latency: mean of group; for responders at 3 mg/kg / responders at 1 mg/kg: Mus musculus, mice with latency > 100 seconds, read-out: Ratio of memory
Method: (§1) As experimental animals, Wistar male rats and ddY male mice were used for the tests after they were housed for a week under every 12 hours' dark-light cycle at room temperature of 24° to 26° C.
The effect on experimental amnesia in mice induced by cycloheximide was evaluated.
The experiment was carried out using an experimental apparatus of passive avoidance task for mice (made by Ohara-ika-sangyo K. K.) comprising a box divided into the two compartments of dark and light. That is, the dark compartment [a box having a reverse trapezoid cross section (height: 8 cm, base line: 5 cm, oblique line: 9.5 cm) and having the length of 14 cm] was shield from a light with a black plastic case and was floored with stainless grids for giving an electrical shock so that an electricity might be turned on a determined time after interception of a photobeam placed in the dark compartment. The light compartment made of transparent plastic (a box of the same shape as that of the dark compartment having the length of 16 cm, lightened from a location spaced 25 cm above by a 60 W electric lamp) was provided adjacent to the dark compartment. Between the two compartments, there was provided a circular entrance having the diameter of 3 cm with a guillotine door which could be opened and closed. By using the above-mentioned dark-light box, the experiment was carried out according to the following procedure.
A mouse (5 week-old) previously conditioned in the dark-light box was put in the light compartment and the guillotine door was opened. Three seconds after the mouse moved into the dark compartment and interrupted the photobeam, 0.3 mA electrical shock was given to limbs for 3 seconds from the floor grid (aquisition trial). Just after the mouse rushed into the light compartment, the door was shut and the […] in the light compartment was picked out to return to his home cage. After 24 hours, the mouse was placed again in the light compartment and the period from the opening of the guillotine door to the time the mouse completely entered the dark compartment was recorded maximally 300 seconds as a step-through latency (retention trial).
The amnesia was induced by subcutaneous injection of cycloheximide (120 mg/kg) dissolved in saline 10 minutes before the aquisition trial. As a control, the same amount of saline alone was administered. […]
A ratio of number of mice showing the step-through latency of more than 100 seconds in the group was defined as a ratio of memory for convenience's sake.
The step-through latency in Table 2 was the mean value for each treated group.

[2] = Acute toxicity test, oral; assay type: in vivo, ddY male mice; conditions: mouse, in vivo, ddY mice, 2 weeks observation
Method: With respect to the compounds 1 to 86 shown in Table 1 as test compounds, the acute toxicity was examined using ddY mice according to the following method.
In each group, six male ddY mice weighing 27 to 30 g were employed. The compounds 1 to 86 suspended in an aqueous solution of 0.5% sodium carboxymethylcellulose were administered orally in a volume of 0.1 ml/10 g body weight. […] The LD50 (mg/kg) values were estimated from the ratio of the number of dead mice to the number of mice used.

[3] = tested on: forced swimming test with rats (duration of immobility); experiment: Antidepressant activity: forced swimming test using rats; assay type: in vivo, Wistar male rats; conditions: for Suppression of duration of immobility: vs saline; for Effect on duration of immobility (in words): oral administration
Method: as §1
That is, a rat (5 week-old) was placed into a glass cylinder having the inside diameter of 18 cm and the height of 40 cm which contained water (water temperature: 25° C.) up to its height of 15 cm. After 15 minutes, the rat was picked up followed by drying and then returned to his home cage. After 24 hours, the rat was again placed into the water in the same cylinder. The duration of immobility (the time rat kept motionless) was accumulatively measured with a stopwatch for five minutes (a five minutes' test). Each test compound was suspended in saline. The administration was carried out three times, at 24, 5 and 1 hour before the five minutes' test in case of an intraperitoneal administration or with only a single administration at 1 hour before the five minutes' test in case of an oral administration to examine the antidepressant effect.
The duration of immobility in Table 4 is the mean value for […] in each group. Suppression is expressed as a ratio in percentage of a reduction of the duration of immobility in the group administered with the test compound to that in the control group administered with saline alone.

M1 receptor = biological target: T1, M1 receptor (Rattus norvegicus, UniProt P08482); experiment: Receptor binding activity, inhibition of [3H]pyrenzepine binding to M1; conditions: 1 nM [3H]pyrenzepine, rat's brain except cerebellum; for inhibition at 10 µM: 10 μM test compound
T1 construct: rat's brain except for cerebellum was homogenized; from tissue; host or cells: rat brain except cerebellum, homogenate
T1 sequence (P08482 1-460): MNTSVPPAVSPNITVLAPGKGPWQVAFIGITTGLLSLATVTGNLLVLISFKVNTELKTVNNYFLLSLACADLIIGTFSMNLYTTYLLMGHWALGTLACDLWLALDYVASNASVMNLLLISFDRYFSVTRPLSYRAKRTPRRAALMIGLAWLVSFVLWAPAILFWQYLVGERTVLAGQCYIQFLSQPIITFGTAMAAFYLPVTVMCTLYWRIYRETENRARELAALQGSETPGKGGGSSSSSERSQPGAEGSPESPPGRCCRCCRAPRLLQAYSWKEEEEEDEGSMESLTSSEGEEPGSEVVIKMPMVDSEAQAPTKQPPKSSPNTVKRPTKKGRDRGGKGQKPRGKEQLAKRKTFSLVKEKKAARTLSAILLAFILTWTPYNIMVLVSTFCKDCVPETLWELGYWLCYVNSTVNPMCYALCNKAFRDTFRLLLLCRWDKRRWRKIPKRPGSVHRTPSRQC
Method: The binding ability of the test compounds to M1 was determined according to a modification of the method of Watson et al. (Life Sci., 32, 3001 (1983)). […] The mixture was incubated for 1 hour. The inhibition rate (%) of the binding with [3H]pyrenzepine was evaluated. The higher inhibition means the higher affinity of the test compound for M1 receptor.

[4] = p.o., 30 mg/kg, 1 hour before test

Row | Structure (SMILES) | Step-through latency ([1]; 3 mg/kg oral) [s] | responders at 3 mg/kg ([1]; 3 mg/kg oral) [%] | LD50 at 336 h [2] [mg/kg] | Step-through latency ([1]; 1 mg/kg oral) [s] | responders at 1 mg/kg ([1]; 1 mg/kg oral) [%] | further results
1 | O=C1NCCC1=Cc1cccc(Oc2ccccc2)c1 [Compound 1] | 198 | 72 | ≥ 500 | – | – | Duration of immobility ([3]; i.p., 1 mg/kg/time, 24, 5 and 1 hour before test): 164 s; Suppression of duration of immobility ([3]; i.p., 1 mg/kg/time): 20%; Duration of immobility ([3]; i.p., 3 mg/kg/time, 24, 5 and 1 hour before test): 101 s; Suppression of duration of immobility ([3]; i.p., 3 mg/kg/time): 50%; Duration of immobility ([3]; i.p., 10 mg/kg/time, 24, 5 and 1 hour before test): 71 s; Suppression of duration of immobility ([3]; i.p., 10 mg/kg/time): 65%; Duration of immobility ([3]; i.p., 30 mg/kg/time, 24, 5 and 1 hour before test): 54 s; Suppression of duration of immobility ([3]; i.p., 30 mg/kg/time): 74%; Duration of immobility ([3]; p.o., 0.3 mg/kg, 1 hour before test): 190 s; Suppression of duration of immobility ([3]; p.o., 0.3 mg/kg): 7%; Duration of immobility ([3]; p.o., 1 mg/kg, 1 hour before test): 165 s; Suppression of duration of immobility ([3]; p.o., 1 mg/kg): 20%; Duration of immobility ([3]; p.o., 3 mg/kg, 1 hour before test): 137 s; Suppression of duration of immobility ([3]; p.o., 3 mg/kg): 33%; Duration of immobility ([3]; p.o., 10 mg/kg, 1 hour before test): 76 s; Suppression of duration of immobility ([3]; p.o., 10 mg/kg): 63%; Duration of immobility [3, 4]: 34 s; Suppression of duration of immobility ([3]; p.o., 30 mg/kg): 83%
2 | CCN1CCC(=Cc2cccc(Oc3ccccc3)c2)C1=O [Compound 10] | 127 | 80 | ≥ 500 | – | – | inhibition at 10 µM (M1 receptor): 90%
3 | CCCN1CCC(=Cc2cccc(Oc3ccccc3)c2)C1=O [Compound 11] | 182 | 63 | ≥ 500 | – | – | inhibition at 10 µM (M1 receptor): 58%
4 | CC(C)N1CCC(=Cc2cccc(Oc3ccccc3)c2)C1=O [Compound 16] | 176 | 75 | ≥ 500 | – | – | inhibition at 10 µM (M1 receptor): 75%
5 | C=CCN1CCC(=Cc2cccc(Oc3ccccc3)c2)C1=O [Compound 20] | – | – | ≥ 500 | – | – | inhibition at 10 µM (M1 receptor): 88%
6 | CON1CCC(=Cc2cccc(Oc3ccccc3)c2)C1=O [Compound 22] | 100 | 50 | ≥ 500 | – | – | inhibition at 10 µM (M1 receptor): 63%
7 | O=C1C(=Cc2cccc(Oc3ccccc3)c2)CCN1CCF [Compound 26] | – | – | ≥ 500 | 196 | 75 | inhibition at 10 µM (M1 receptor): 87%
8 | O=C1NC(CO)CC1=Cc1cccc(Oc2ccccc2)c1 (stereo not drawn) [Compound 58] | – | – | ≥ 500 | 111 | 50 | –
9 | CCN1CC(C)C(=Cc2cccc(Oc3ccccc3)c2)C1=O (stereo not drawn) [Compound 61] | – | – | ≥ 500 | 90 | 50 | –
10 | O=C1NCC(c2ccccc2)C1=Cc1cccc(Oc2ccccc2)c1 (stereo not drawn) [Compound 62] | 170 | 50 | ≥ 500 | – | – | –
11 | CCN1CCC(=Cc2cccc(Oc3ccccc3)c2)C1 [Compound 67] | – | – | – | 100 | 50 | Inhibition of the binding with [3H]pyrenzepine (M1) (M1 receptor; 1 μM test compound): 78%
12 | CCCCN1CCC(=Cc2cccc(Oc3ccccc3)c2)C1 [Compound 68] | – | – | ≥ 500 | 179 | 75 | –
13 | C=CCN1CCC(=Cc2cccc(Oc3ccccc3)c2)C1 [Compound 69] | – | – | ≥ 500 | 102 | 50 | –
14 | OCCN1CCC(=Cc2cccc(Oc3ccccc3)c2)C1 [Compound 71] | – | – | ≥ 500 | 212 | 75 | –
15 | NC(=O)N1CCC(=Cc2cccc(Oc3ccccc3)c2)C1 [Compound 73] | – | – | ≥ 500 | 119 | 50 | –
16 | CC(=O)N1CCC(=Cc2cccc(Oc3ccccc3)c2)C1 [Compound 74] | – | – | ≥ 500 | 107 | 50 | –
17 | CCC1C(=Cc2cccc(Oc3ccccc3)c2)CCN1CC (stereo not drawn) [Compound 78] | – | – | ≥ 500 | 132 | 75 | –
18 | CCCCC1C(=Cc2cccc(Oc3ccccc3)c2)CCN1CC (stereo not drawn) [Compound 79] | – | – | ≥ 500 | 168 | 50 | –
19 | CCC1C(=Cc2cccc(Oc3ccccc3)c2)CCN1C(C)=O (stereo not drawn) [Compound 80] | – | – | ≥ 500 | 100 | 50 | –
20 | O=C1NCCC1Cc1cccc(Oc2ccccc2)c1 (stereo not drawn) [Compound 81] | – | – | ≥ 500 | 70 | 25 | –
21 | CCN1CCC(Cc2cccc(Oc3ccccc3)c2)C1=O (stereo not drawn) [Compound 82] | 102 | 38 | ≥ 500 | – | – | –
22 | CCN1CCC(Cc2cccc(Oc3ccccc3)c2)C1 (stereo not drawn) [Compound 83] | – | – | ≥ 500 | 188 | 100 | –
23 | C(=C1CCN(C2CC2)C1)c1cccc(Oc2ccccc2)c1 [Compound 85] | – | – | ≥ 500 | 97 | 25 | –
24 | S=C1NCCC1=Cc1cccc(Oc2ccccc2)c1 [Compound 86] | 70 | 25 | ≥ 500 | – | – | –
25 | CN(C)CCCN1c2ccccc2CCc2ccccc21 [Imipramine, imipramine, reference compound] | – | – | – | – | – | Duration of immobility ([3]; i.p., 100 mg/kg/time, 24, 5 and 1 hour before test): 79 s; Suppression of duration of immobility ([3]; i.p., 100 mg/kg/time): 61%; Effect on duration of immobility (in words) [3]: no effect; Duration of immobility [3, 4]: 210 s; Suppression of duration of immobility ([3]; p.o., 30 mg/kg): -2%
26 | C#CCN(C)Cc1ccccc1 [Pargyline, pargyline, reference compound] | – | – | – | – | – | Effect on duration of immobility (in words) [3]: prolongation of the duration of immobility; Duration of immobility [3, 4]: 244 s; Suppression of duration of immobility ([3]; p.o., 30 mg/kg): -19%
